Measurements as given in patent publication US6723702B2, “Use of relaxin treat diseases related to vasoconstriction” (RAS Medical, Inc., priority 2000, dated 2004).
Marks after values point to notes of the source that are not given here.

Key:
intact, female rats = test: Hematocrit and plasma osmolality during chronic relaxin infusion; type: in vivo, rat; conditions: for Hematocrit, Difference between baseline and Day 5 / Plasma osmolality, Difference between baseline and Day 5: 4 μg/h s.c. infusion
Description: At the beginning of each experiment, immediately after opening the arterial catheter and before infusion of fluids, 100 μl of blood was collected into a heparinized tube. After centrifugation to separate blood cells from plasma, the latter was frozen at −20° C. until assay for osmolality. Then, three 30-minute baseline urine collections with midpoint blood samples and continuous recording of MAP were made on one or two occasions separated by at least 48 hours, in order to accurately measure control MAP, GFR, ERPF, and ERVR (MAP/ERPF). The hematocrit was also routinely determined on these midpoint blood samples. The renal clearances of IN and PAH were used to assess GFR and ERPF, respectively. […] Next, an osmotic minipump containing purified porcine RLX (4 μg/hour; n=7 rats), rhRLX (4 μg/hour; n=5) or vehicle (n=4) was implanted. MAP, GFR, ERPF, and ERVR were assessed on days 2 and 5 of the infusion, and 5-12 days after depletion of the 7-day minipump. Details of our methodologies for the assessment of GFR and ERPF in chronically instrumented, conscious rats including the measurement of IN and PAH in both plasma and urine have been previously published. Conrad (1984) Kidney Int. 26:24-29; and Danielson and Conrad (1995) J. Clin. Invest. 96:482-490. Circulating relaxin concentrations of 20-40 ng/mL have been measured in rats of 12-14 gestational days. Sherwood et al. (1980) Endocrinol. 107:691-698. An infusion rate of 4 μg/hour for purified porcine RLX or rhRLX would be expected to produce plasma levels of 20-40 ng/mL.
Plasma osmolality was measured using a freezing-point depression instrumentation osmometer (Model 3MO, Advanced Instruments, Needham Heights, Mass.). Plasma and urine IN and PAH were assayed by standard techniques. Urinary sodium concentration was measured by ion selective electrode (Sodium-Potassium Chemistry Module, Beckman Instruments, Inc., Brea, Calif.). Urinary cGMP was determined by specific radioimmunoassay as previously described. Conrad and Vernier (1989) Am. J. Physiol. 257:R847-R853. Urinary NOX was measured by reduction of nitrate to nitrite, the latter determined by the Griess reaction which produces a calorimetric product measured at 540 nm (Nitrate/Nitrite Colorimetric Assay Kit, Cayman Chemical, Ann Arbor, Mich.).
Data are presented as mean±SEM. rhRLX, recombinant human relaxin. RLX was infused at 4 μg/h by osmotic minipump s.c. There were 7, 4, and 5 rats, respectively, in the porcine RLX, vehicle, and rhRLX groups at baseline, and days 2 and 5 of treatment. During the post RLX period, 6, 2, and 2 rats were studied in the porcine RLX, vehicle and rhRLX groups. Two of the rats in the vehicle group received Ringer's solution (vehicle for porcine RLX), and two received 20 mM sodium acetate, pH 5.0 (vehicle for rhRLX). The results were not different, and therefore, the data were combined. *p<0.05 vs baseline, Hp<0.05 RLX vs vehicle.

THP-1 cells [1] = test: THP-1 cells: VEGF and bFGF mRNA induction; type: cell-based, human; conditions: 100 ng/ml for 3 hours (FIG. 9)
Description: Sense and anti-sense primers for use with the real time RT-PCR, ABI Prism 7700 Sequence Detection System were designed using the PrimerExpress version 1.0 software (PE Applied Biosystems, Inc.). Rat and human specific primer/probe sets included those for GAPDH, bFGF, the VEGF 164 aa or 120 aa rat isoforms, and their respective human homologues (VEGF 165 and VEGF 121). ABI PRISM specific primer/probes were purchased from BioSource International Inc. or PE Applied Biosystems.
RT-PCR was performed on 150 ng for the analysis of VEGF and bFGF mRNA expression. Ten nanograms of total RNA was used for GAPDH niRNA expression. […] Data were analyzed using Sequence Detector v1.6.3 software (Applied Biosystems/PE). […]
Because macrophages are the inflammatory cells predominantly responsible for the angiogenic response that occurs during healing, a monocyte/macrophage cell line shown previously to bind relaxin with high affinity (THP-1) (Parsell et al. (1996) J. Biol. Chem. 271:27936-27941) was tested for relaxin inducibility of VEGF and bFGF. […] In order to determine whether the increase in VEGF mRNA observed following short-term relaxin treatment was reflected by an elevation in secreted VEGF protein, THP-1 cells were treated with relaxin (0.01-100 ng/ml) for 24 h, the conditioned media collected, and VEGF content in the media quantified by ELISA. […]

THP-1 cells [2] = test: THP-1 cells: morphology, 3H-thymidine uptake, metalloproteinase expression; type: cell-based, human
endothelial cells = test: Other aspects of endothelial cell phenotype (collagen, metalloproteinase/TIMP-1, invasion, tube formation, chemotaxis); type: cell-based
Description: Relaxin was then assayed for the ability to induce proliferation of endothelial cells directly. Relaxin's potential mitogenic effect was tested on human primary umbilical vein, aortic, foreskin, and pulmonary endothelial cells, as well as rat aortic endothelial cells. […] Alterations in other aspects of endothelial cell phenotype that are believed to correlate with angiogenesis were also tested. Relaxin had no effect on collagen expression, judged by SDS-PAGE of ^3H-proline-labeled cellular proteins; or metalloproteinase or tissue inhibitor of metalloproteinase-1 secretion, assessed by gelatin zymography. […] Therefore, relaxin had no apparent effect directly on endothelial cells.

[3] = Baseline, before 4 μg/h s.c. minipump

For “Porcine RLX: lyophilized, purified porcine relaxin (Sherwood and O'Byrne 1974), dissolved in Ringer's solution”, the “Hematocrit, Difference between baseline and Day 5” value (intact, female rats) was −4 ± 1 %, the “Plasma osmolality, Difference between baseline and Day 5” value (intact, female rats) was −14 ± 3 mOsm/kg H2O and the Hematocrit (intact, female rats; [3]) was 42 ± 1%. The Plasma osmolality (intact, female rats; [3]) was 301 ± 2 mOsm/kg H2O, the Hematocrit (intact, female rats; Day 2 of 4 μg/h s.c. infusion) was 39 ± 1* % and the Plasma osmolality (intact, female rats; Day 2 of 4 μg/h s.c. infusion) was 289 ± 2*† mOsm/kg H2O. The Hematocrit (intact, female rats; Day 5 of 4 μg/h s.c. infusion) was 37 ± 1*† %, the Plasma osmolality (intact, female rats; Day 5 of 4 μg/h s.c. infusion) was 287 ± 2*† mOsm/kg H2O and the Hematocrit (intact, female rats; Post RLX Day 5-12) was 40 ± 1%. For the same substance, the Plasma osmolality (intact, female rats; Post RLX Day 5-12) was 299 ± 2 mOsm/kg H2O.
In the case of “rhRLX: recombinant human relaxin, identical in amino acid sequence to the product of the human H2 gene; A chain of 24, B chain of 29 amino acids”, the “Transcripts for VEGF” value (THP-1 cells [1]) is reported as “specifically upregulated”, the “morphological changes, such as adherence to plastic or aggregation” value (THP-1 cells [2]) is reported as “no observable morphological changes” and the “Hematocrit, Difference between baseline and Day 5” value (intact, female rats) is reported as −2 ± 1 %. The “Plasma osmolality, Difference between baseline and Day 5” value (intact, female rats) was −12 ± 2 mOsm/kg H2O, the Hematocrit (intact, female rats; [3]) was 39 ± 0% and the Plasma osmolality (intact, female rats; [3]) was 299 ± 2 mOsm/kg H2O. The Hematocrit (intact, female rats; Day 2 of 4 μg/h s.c. infusion) was 37 ± 1* %, the Plasma osmolality (intact, female rats; Day 2 of 4 μg/h s.c. infusion) was 291 ± 3*† mOsm/kg H2O and the Hematocrit (intact, female rats; Day 5 of 4 μg/h s.c. infusion) was 37 ± 1*† %. The Plasma osmolality (intact, female rats; Day 5 of 4 μg/h s.c. infusion) was 286 ± 2*† mOsm/kg H2O, the Hematocrit (intact, female rats; Post RLX Day 5-12) was 40% and the Plasma osmolality (intact, female rats; Post RLX Day 5-12) was 302 mOsm/kg H2O. The chemotaxis in vitro (endothelial cells) was “nor did it induce chemotaxis”, the collagen expression (endothelial cells; SDS-PAGE of 3H-proline-labeled cellular proteins) was “no effect” and the “ability of endothelial cells to invade the substrate or to form tube structures” value (endothelial cells; Type I collagen or Matrigel substrate) was “no effect”. The “metalloproteinase or tissue inhibitor of metalloproteinase-1 secretion” value (endothelial cells; gelatin zymography) was “no effect”.
